Assay results reported in publication PMC5845353, “The selective cathepsin K inhibitor MIV-711 attenuates joint pathology in experimental animal models of osteoarthritis” (Journal of Translational Medicine, 2018).
“And” between values parts separate entries of the source, which are not always exact repeats. Equal values may be shown once.

Key:
[1] = tested on: CTX-I; assay: Urinary CTX-I in dogs subjected to partial medial meniscectomy; type: in vivo; conditions: dog, 30 µmol/kg
Protocol: Dogs subjected to partial medial meniscectomy received either 30 µmol/kg MIV-711 (synthesized by Medivir and given as a suspension in 1% Methocel A4C; n = 15) or vehicle (1% Methocel A4C; n = 15) by orogastric gavage once daily in the morning. […] Dosing started the day before surgery and lasted through Day 28, the day before necropsy. Each dog was fasted for at least 12 h before dosing and food were returned approximately 4 h following test article administration.
Urine samples were collected from the animals 1 to 3 days before surgery and treatment (baseline sample), 4 to 7 days after the start of treatment (Day 7 sample) and 26 to 28 days after treatment (Day 28 sample). Dogs were housed in metabolic cages overnight during urine collection. […]
In rabbits, conventional CTX-I assays to assess bone resorption cannot be used due to species differences. Instead, urinary helical peptide (HP-1) concentrations were measured in rabbits using the MicroVue Helical Peptide kit (Ref: 8022) from Quidel (San Diego, CA) according to the instructions supplied by the manufacturer. In dogs, urinary levels of C-terminal telopeptide of collagen type I (CTX-I) were measured using a commercially available kit (Urine BETA CrossLaps ELISA, Ref: AC-05F1, IDS Nordic Bioscience Diagnostics A/S). […] In dogs, CTX-II levels were also measured in synovial fluid. […]

[2] = tested on: dogs subjected to partial medial meniscectomy; assay: Dog partial medial meniscectomy study, sclerosis of subchondral bone and bone area; type: in vivo
Text: Sclerosis of subchondral bone (an indication of altered load-bearing) was described and documented for femur using a comparison of medial to lateral, but was not included in the overall cartilage degeneration scores. This parameter was scored based on percent width of the medial femur with obviously thickened subchondral bone according to the following criteria: 0=normal 1=up to 10% of femur width has thickened trabeculae 2=11-30 % of femur width has thickened trabeculae 3=31-60 % of femur width has thickened trabeculae 4=61-90 % of femur width has thickened trabeculae 5=>90% of femur width has thickened trabeculae An additional measure of bone area was performed as follows: The photo file was opened and a fixed segment of 1000 by 400 pixels was selected with the bottom left and right corners touching the tidemark: The selected segment was opened in a new file and segmented into fourths: Black lines were drawn on the three segmenting lines in areas of no bone: Lengths of each individual drawn segment were summed per line for a total length of area of no bone, then divided by the total length of the image and calculated into a percent. Percent of no bone was calculated for each of the three segmented lines and then averaged for a mean percent of no bone for the image.

[3] = dog partial medial meniscectomy, group Mean
[4] = dog partial medial meniscectomy, versus Vehicle group

C#C[C@@H]1CN(C(=O)[C@H](CC(C)C)NC(=O)c2ccc(-c3nc(N4CCN(C)CC4)sc3F)cc2)[C@@H]2C(=O)CO[C@H]12 [MIV-711]
urinary CTX-I levels reduced by ([1]; Day 7, vs. baseline): 78% | urinary CTX-I levels reduced by ([1]; Day 28, vs. baseline): 86% | Bone Score ([2]; MIV-711 group mean, sclerosis of subchondral bone): 3.07 | % inhibition, Bone Score ([2]; MIV-711 group vs vehicle): 4% | Percent Length of no Bone, LFC Mean [2, 3]: 57% | Percent Length of no Bone, LFC Site 1 [2, 3]: 59% | Percent Length of no Bone, LFC Site 2 [2, 3]: 58% | Percent Length of no Bone, LFC Site 3 [2, 3]: 54% | Percent Length of no Bone, MFC Mean [2, 3]: 39% | Percent Length of no Bone, MFC Site 1 [2, 3]: 42% | Percent Length of no Bone, MFC Site 2 [2, 3]: 39% | Percent Length of no Bone, MFC Site 3 [2, 3]: 36% | Percent Length of no Bone, Overall Mean [2, 3]: 48% | Percent Length of no Bone, LFC Site 2 ([2]; dog partial medial meniscectomy, individual animal, LFC site 2): 50% and 62% and 55% and 63% and 66% and 57% and 51% and 54% and 59% and 45% and 60% and 72% | Percent Length of no Bone, LFC Site 3 ([2]; dog partial medial meniscectomy, individual animal, LFC site 3): 42% and 48% and 49% and 64% and 60% and 58% and 45% and 59% and 47% and 46% and 56% and 71% and 52% | Percent Length of no Bone, MFC Site 1 ([2]; dog partial medial meniscectomy, individual animal, MFC site 1): 47% and 50% and 24% and 35% and 52% and 38% and 36% and 57% and 44% and 48% and 51% and 21% | Percent Length of no Bone, MFC Site 2 ([2]; dog partial medial meniscectomy, individual animal, MFC site 2): 32% and 42% and 21% and 39% and 46% and 38% and 52% and 37% and 34% and 51% and 27% and 57% and 26% and 36% | Percent Length of no Bone, MFC Site 3 ([2]; dog partial medial meniscectomy, individual animal, MFC site 3): 34% and 33% and 21% and 36% and 51% and 24% and 32% and 22% and 49% and 44% and 41% and 40% | Percent Length of no Bone, LFC Site 1 ([2]; dog partial medial meniscectomy, individual animal, lateral femoral condyle site 1): 58% and 64% and 49% and 53% and 63% and 54% and 70% and 57% and 61% and 46% and 66% and 67% | Percent Length of no Bone, LFC Mean ([2]; dog partial medial meniscectomy, individual animal, mean of LFC sites 1-3): 50% and 58% and 51% and 60% and 63% and 56% and 55% and 54% and 52% and 70% | Percent Length of no Bone, MFC Mean ([2]; dog partial medial meniscectomy, individual animal, mean of MFC sites 1-3): 38% and 42% and 22% and 37% and 50% and 33% and 51% and 35% and 30% and 52% and 46% | Percent Length of no Bone, Overall Mean ([2]; dog partial medial meniscectomy, individual animal, overall mean LFC and MFC): 44% and 50% and 37% and 48% and 56% and 45% and 53% and 54% and 46% and 49% | % inhibition of Percent Length of no Bone, LFC Mean [2, 4]: 1% | % inhibition of Percent Length of no Bone, LFC Site 1 [2, 4]: -4% | % inhibition of Percent Length of no Bone, LFC Site 2 [2, 4]: 2% | % inhibition of Percent Length of no Bone, LFC Site 3 [2, 4]: 6% | % inhibition of Percent Length of no Bone, MFC Mean [2, 4]: -10% | % inhibition of Percent Length of no Bone, MFC Site 1 [2, 4]: -12% | % inhibition of Percent Length of no Bone, MFC Site 2 [2, 4]: 1% | % inhibition of Percent Length of no Bone, MFC Site 3 [2, 4]: -21% | % inhibition of Percent Length of no Bone, Overall Mean [2, 4]: -3% | effects on subchondral bone sclerosis and bone area at the microscopic level ([2]; dog, 30 µmol/kg): no significant effects | Bone Score ([2]; individual dogs of MIV-711 group, scoring of sclerosis of subchondral bone): 5 and 3 and 4 and 2 and 1
